Each molecule was assayed on HCT116 colorectal cancer cells (assay: Cisplatin sensitization assay (96 h MTS cell viability)). Conditions: Cisplatin sensitization value.
Type: cell-based
Summary of the method: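 HCT116 cells were dosed simultaneously with compound and cisplatin as a full matrix of 2-fold serial dilutions from 10 μM top final concentration. Incubation was 96 h at 37° C., 5% CO2, followed by 1 h with MTS reagent for the viability read-out. Sensitization values were binned into +++, ++ and + categories.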
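Also: compound concentration needed to lower the IC50 of Cisplatin alone by a set fold.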

| Structure (SMILES) | Cisplatin Sensitization Assay |
| --- | --- |
| Nc1nn2cc(F)cnc2c1C(=O)Nc1cnccc1N1CCC(CN2CCC(F)(F)C2)CC1 [I-N-197, 2-amino-N-(4-(4-((3,3-difluoropyrrolidin-1-yl)methyl)piperidin-1-yl)pyridin-3-yl)-6-fluoropyrazolo[1,5-a]pyrimidine-3-carboxamide] | +++ (Compounds with a Cisplatin sensitization value of <0.02 μM are marked with “+++.”) |
| CN1CC2CC1CN2C(=O)C1CCN(c2c(F)cncc2NC(=O)c2c(N)nn3cc(F)cnc23)CC1 (stereo not drawn) [I-G-53, 2-amino-6-fluoro-N-(5-fluoro-4-(4-(5-methyl-2,5-diazabicyclo[2.2.1]heptane-2-carbonyl)piperidin-1-yl)pyridin-3-yl)pyrazolo[1,5-a]pyrimidine-3-carboxamide] | +++ (Compounds with a Cisplatin sensitization value of <0.02 μM are marked with “+++.”) |
| N#CCc1cnc2c(C(=O)Nc3cnccc3OC3CCNCC3)c(N)nn2c1 [I-O-84, 2-amino-6-(cyanomethyl)-N-(4-(piperidin-4-yloxy)pyridin-3-yl)pyrazolo[1,5-a]pyrimidine-3-carboxamide] | ++ (Compounds with a Cisplatin sensitization value >0.02 μM but <0.2 μM are marked with “++.”) |
| Nc1nn2cc(F)cnc2c1C(=O)Nc1cncc(F)c1N1CCC(N2CCCC2=O)CC1 [I-N-147, 2-amino-6-fluoro-N-(5-fluoro-4-(4-(2-oxopyrrolidin-1-yl)piperidin-1-yl)pyridin-3-yl)pyrazolo[1,5-a]pyrimidine-3-carboxamide] | +++ (Compounds with a Cisplatin sensitization value of <0.02 μM are marked with “+++.”) |
| Nc1nn2cc(F)cnc2c1C(=O)Nc1cnccc1N1CCC(c2nnco2)CC1 [I-N-268, N-(4-(4-(1,3,4-oxadiazol-2-yl)piperidin-1-yl)pyridin-3-yl)-2-amino-6-fluoropyrazolo[1,5-a]pyrimidine-3-carboxamide] | +++ (Compounds with a Cisplatin sensitization value of <0.02 μM are marked with “+++.”) |
| Cc1ccc(-c2ccncc2NC(=O)c2c(N)nn3cc(F)cnc23)cn1 [I-C-22, 2-amino-6-fluoro-N-(6-methyl-[3,4′-bipyridin]-3′-yl)pyrazolo[1,5-a]pyrimidine-3-carboxamide] | ++ (Compounds with a Cisplatin sensitization value >0.02 μM but <0.2 μM are marked with “++.”) |
| Nc1nn2cc(Cl)cnc2c1C(=O)Nc1cnccc1N1CC[S+]([O-])CC1 [I-N-68, 2-amino-6-chloro-N-(4-(1-oxidothiomorpholino)pyridin-3-yl)pyrazolo[1,5-a]pyrimidine-3-carboxamide] | +++ (Compounds with a Cisplatin sensitization value of <0.02 μM are marked with “+++.”) |
| CC(C)(C)Oc1ccncc1NC(=O)c1c(N)nn2cc(F)cnc12 [I-O-88, 2-amino-N-(4-(tert-butoxy)pyridin-3-yl)-6-fluoropyrazolo[1,5-a]pyrimidine-3-carboxamide] | +++ (Compounds with a Cisplatin sensitization value of <0.02 μM are marked with “+++.”) |
| CN(C)C1CCN(c2ccncc2NC(=O)c2c(N)nn3cc(Cl)cnc23)CC1 [I-N-37, 2-amino-6-chloro-N-(4-(4-(dimethylamino)piperidin-1-yl)pyridin-3-yl)pyrazolo[1,5-a]pyrimidine-3-carboxamide] | ++ (Compounds with a Cisplatin sensitization value >0.02 μM but <0.2 μM are marked with “++.”) |
| Nc1nn2cc(F)cnc2c1C(=O)Nc1cncc(F)c1N1CCN2C(=O)CCC[C@@H]2C1 [I-N-280, (R)-2-amino-6-fluoro-N-(5-fluoro-4-(6-oxohexahydro-1H-pyrido[1,2-a]pyrazin-2(6H)-yl)pyridin-3-yl)pyrazolo[1,5-a]pyrimidine-3-carboxamide] | +++ (Compounds with a Cisplatin sensitization value of <0.02 μM are marked with “+++.”) |
| Cn1ccc2cncc(NC(=O)c3c(N)nn4cc(F)cnc34)c21 [I-N-259, 2-amino-6-fluoro-N-(1-methyl-1H-pyrrolo[3,2-c]pyridin-7-yl)pyrazolo[1,5-a]pyrimidine-3-carboxamide] | + (Compounds with a Cisplatin sensitization value >0.2 μM but <5 μM are marked with “+.”) |
| Nc1nn2cc(F)cnc2c1C(=O)Nc1cnccc1N1CCC(S(=O)(=O)C2COC2)CC1 [I-N-200, 2-amino-6-fluoro-N-(4-(4-(oxetan-3-ylsulfonyl)piperidin-1-yl)pyridin-3-yl)pyrazolo[1,5-a]pyrimidine-3-carboxamide] | +++ (Compounds with a Cisplatin sensitization value of <0.02 μM are marked with “+++.”) |
| CN1CCCN(C(=O)C2CCN(c3c(F)cncc3NC(=O)c3c(N)nn4cc(F)cnc34)CC2)CC1 [I-G-6, 2-amino-6-fluoro-N-(5-fluoro-4-(4-(4-methyl-1,4-diazepane-1-carbonyl)piperidin-1-yl)pyridin-3-yl)pyrazolo[1,5-a]pyrimidine-3-carboxamide] | +++ (Compounds with a Cisplatin sensitization value of <0.02 μM are marked with “+++.”) |
| N#CCc1cnc2c(C(=O)Nc3cnccc3N3CCC(N)CC3)c(N)nn2c1 [I-N-2, 2-amino-N-(4-(4-aminopiperidin-1-yl)pyridin-3-yl)-6-(cyanomethyl)pyrazolo[1,5-a]pyrimidine-3-carboxamide] | +++ (Compounds with a Cisplatin sensitization value of <0.02 μM are marked with “+++.”) |
| N#CCc1cnc2c(C(=O)Nc3cnccc3OC3CCC3)c(N)nn2c1 [I-O-36, 2-amino-6-(cyanomethyl)-N-(4-cyclobutoxypyridin-3-yl)pyrazolo[1,5-a]pyrimidine-3-carboxamide] | +++ (Compounds with a Cisplatin sensitization value of <0.02 μM are marked with “+++.”) |
| CCOc1ccncc1NC(=O)c1c(N)nn2cc(F)cnc12 [I-O-14, 2-amino-N-(4-ethoxypyridin-3-yl)-6-fluoropyrazolo[1,5-a]pyrimidine-3-carboxamide] | +++ (Compounds with a Cisplatin sensitization value of <0.02 μM are marked with “+++.”) |
| Nc1nn2cc(F)cnc2c1C(=O)Nc1cncc(F)c1N1CCN(C(=O)C2CNC2)CC1 [I-N-168, 2-amino-N-(4-(4-(azetidine-3-carbonyl)piperazin-1-yl)-5-fluoropyridin-3-yl)-6-fluoropyrazolo[1,5-a]pyrimidine-3-carboxamide] | + (Compounds with a Cisplatin sensitization value >0.2 μM but <5 μM are marked with “+.”) |
| Nc1nn2cc(F)cnc2c1C(=O)Nc1cncc(F)c1N1CCCCC1 [I-N-270, 2-amino-6-fluoro-N-(5-fluoro-4-(piperidin-1-yl)pyridin-3-yl)pyrazolo[1,5-a]pyrimidine-3-carboxamide] | +++ (Compounds with a Cisplatin sensitization value of <0.02 μM are marked with “+++.”) |
| Nc1nn2cc(F)cnc2c1C(=O)Nc1cnccc1N1CCN(C2COC2)CC1 [I-N-1, 2-amino-6-fluoro-N-(4-(4-(oxetan-3-yl)piperazin-1-yl)pyridin-3-yl)pyrazolo[1,5-a]pyrimidine-3-carboxamide] | ++ (Compounds with a Cisplatin sensitization value >0.02 μM but <0.2 μM are marked with “++.”) |
| CN(C)[C@H]1CCN(c2ccncc2NC(=O)c2c(N)nn3cc(Cl)cnc23)C[C@@H]1O [I-N-35, 2-amino-6-chloro-N-(4-((3S,4S)-4-(dimethylamino)-3-hydroxypiperidin-1-yl)pyridin-3-yl)pyrazolo[1,5-a]pyrimidine-3-carboxamide] | + (Compounds with a Cisplatin sensitization value >0.2 μM but <5 μM are marked with “+.”) |
| CN1C2CCC1CN(C(=O)C1CCN(c3c(F)cncc3NC(=O)c3c(N)nn4cc(F)cnc34)CC1)C2 [I-G-52, 2-amino-6-fluoro-N-(5-fluoro-4-(4-(8-methyl-3,8-diazabicyclo[3.2.1]octane-3-carbonyl)piperidin-1-yl)pyridin-3-yl)pyrazolo[1,5-a]pyrimidine-3-carboxamide] | +++ (Compounds with a Cisplatin sensitization value of <0.02 μM are marked with “+++.”) |
| CC(=O)N1CCN(c2c(F)cncc2NC(=O)c2c(N)nn3cc(F)cnc23)CC1 [I-N-275, N-(4-(4-acetylpiperazin-1-yl)-5-fluoropyridin-3-yl)-2-amino-6-fluoropyrazolo[1,5-a]pyrimidine-3-carboxamide] | +++ (Compounds with a Cisplatin sensitization value of <0.02 μM are marked with “+++.”) |
| Nc1nn2cc(Cl)cnc2c1C(=O)Nc1cnccc1N1CCC(N2CC[S+]([O-])CC2)CC1 [I-N-100, 2-amino-6-chloro-N-(4-(4-(1-oxidothiomorpholino)piperidin-1-yl)pyridin-3-yl)pyrazolo[1,5-a]pyrimidine-3-carboxamide] | ++ (Compounds with a Cisplatin sensitization value >0.02 μM but <0.2 μM are marked with “++.”) |
| CN1CCC(C(=O)N2CCC(c3ccncc3NC(=O)c3c(N)nn4cc(F)cnc34)CC2)CC1 [I-C-16, 2-amino-6-fluoro-N-(4-(1-(1-methylpiperidine-4-carbonyl)piperidin-4-yl)pyridin-3-yl)pyrazolo[1,5-a]pyrimidine-3-carboxamide] | + (Compounds with a Cisplatin sensitization value >0.2 μM but <5 μM are marked with “+.”) |
| Nc1nn2cc(F)cnc2c1C(=O)Nc1cncc(Cl)c1N1CCC(C(=O)N2CCN3CCC2CC3)CC1 [I-G-66, N-(4-(4-(1,4-diazabicyclo[3.2.2]nonane-4-carbonyl)piperidin-1-yl)-5-chloropyridin-3-yl)-2-amino-6-fluoropyrazolo[1,5-a]pyrimidine-3-carboxamide] | +++ (Compounds with a Cisplatin sensitization value of <0.02 μM are marked with “+++.”) |
| CC(C)Oc1ccncc1NC(=O)c1c(N)nn2cc(CC#N)cnc12 [I-O-35, 2-amino-6-(cyanomethyl)-N-(4-isopropoxypyridin-3-yl)pyrazolo[1,5-a]pyrimidine-3-carboxamide] | +++ (Compounds with a Cisplatin sensitization value of <0.02 μM are marked with “+++.”) |
| Nc1nn2cc(F)cnc2c1C(=O)Nc1cnccc1C1CCN(C2COC2)CC1 [I-C-10, 2-amino-6-fluoro-N-(4-(1-(oxetan-3-yl)piperidin-4-yl)pyridin-3-yl)pyrazolo[1,5-a]pyrimidine-3-carboxamide] | +++ (Compounds with a Cisplatin sensitization value of <0.02 μM are marked with “+++.”) |

From patent US11117900B2 (Vertex Pharmaceuticals Incorporated, priority 2012, dated 2021)
